Patent US20070117773A1, “Telomerase-inhibiting ENA oligonucleotide” (SANKYO COMPANY, LIMITED, priority 2004, published 2007)

Tested on: RNA oligonucleotide having the sequence of telomerase RNA (5′-UUGUCUAACCCUA-3′)
Assay: Test for determining melting temperature (Tm) with telomerase RNA oligonucleotide
Type: binding, human
Details: 3.4 μM compound + 3.4 μM RNA oligonucleotide, 10 mM sodium phosphate buffer (pH 7.2), absorbance at 260 nm, 20° C. to 95° C.

Substance	Tm (melting temperature) [°C]
HO-T^e2s-A^e2s-G^e2s-G^e2s-G^e2s-T^e2s-T^e2s-A^e2s-CH2CH2OH [Example 4]	62
HO-T^e2s-A^e2s-G^e2s-G^e2s-G^e2s-T^e2s-T^e2s-A^e2s-G^e2s-CH2CH2OH [Example 6]	71
HO-T^e2s-A^e2s-G^e2s-G^e2s-G^e2s-T^e2s-T^e2s-A^e2s-G^e2s-A^e2s-CH2CH2OH [Example 3]	74
HO-T^e2s-A^e2s-G^e2s-G^e2s-G^e2s-T^e2s-T^e2s-CH2CH2OH [Example 5]	52
HO-T^e2s-A^e2s-G^e2s-G^e2s-G^e2s-T^e2s-T^e2s-A^e2s-G^e2s-C^e2s-A^e2s-A^e2s-CH2CH2OH [Example 1]	85
HO-T^e2s-A^e2s-G^e2s-G^e2s-G^e2s-T^e2s-T^e2s-A^e2s-G^e2s-A^e2s-C^e2s-A^e2s-CH2CH2OH [Example 2]	87
